Test results from patent EP1044978A2, “1-N-alkyl-5'-[(N'-(un)substituted)amido]spiroindolinonaphthoxazines, their preparation, compositions and (co)polymer matrices containing them” (Corning S.A., priority 1999, dated 2000).

Test: Photochromic properties of lens samples (2 mm, compound in matrix I or II) exposed to UV radiation from a xenon lamp
Assay type: physicochemical
Conditions: lens sample
Text: The matrix used in accordance with the present invention may be one of two types :
A homopolymer of the monomer DIACRYL 121 (D121 : tetraethoxylated Bisphenol A dimethylmethacrylate), marketed by Akzo Nobel; or
A copolymer comprised of a 50/50 mixture by weight of D121 (as above) and polyethylene glycol dimethacrylate (Molecular weight = 400) (PEGDMA 400).
10^-5 moles of at least one compound of the invention, together with 0.2% by weight of AMBN (2,2'-azobis(2-methylbutyronitrile)) provided by Akzo, are added to 10 g of formulations able to generate cross-linked matrix I or II. The formulations thus prepared are then poured into a lens mould of 2 mm thickness and then cured by heating at 60°C for 6 hours, followed by heating at 80°C for 2 hours to give a lens sample.
The photochromic properties of the lens samples thus obtained were then evaluated as follows :
Said lens sample, containing said photochromic compounds in its mass, is exposed to a UV radiation (source: xenon lamp).
Bleu D: 1,3-dihydro-1,3,3,5,6-pentamethylspiro[2H-indole-2'3'-[3H]-naphth-[2,1-b][1,4]oxazine] supplied by Great Lakes. T0 : the transmission before exposure to UV TD15 : the transmission after 15 minutes' exposure to UV OID : optical induced density (D∞-D0) [D∞ is the density after exposure, D0 the density before exposure] t1/2 : time of half-darkness which characterises the kinetics of the return to the initial state when at the equilibrium the exposure is cut off. λmax : the maximum absorption in the visible spectrum after UV irradiation.

[1] = Matrix I (homopolymer of DIACRYL 121)
[2] = Matrix II (50/50 D121 / PEGDMA 400 copolymer)

Row | Compound | OID (optical induced density, D∞-D0) [1] | T0 (the transmission before exposure to UV) [1] | λmax (the maximum absorption in the visible spectrum after UV irradiation) [1] | OID (optical induced density, D∞-D0) [2] | T0 (the transmission before exposure to UV) [2] | λmax (the maximum absorption in the visible spectrum after UV irradiation) [2] | TD15 (the transmission after 15 minutes' exposure to UV) [1] | TD15 (the transmission after 15 minutes' exposure to UV) [2]
1 | 1,3-dihydro-1,3,3,4(5),5(6)-pentamethyl-5'-piperidinocarbonyl-spiro[2H]-indole-2,3'-[3H]naphth[2,1-b][1,4]oxazine [Example 5] | 0.905 | 77.6% | 626 nm | 1.067 | 80.7% | 622 nm | 9.7% | 6.9%
2 | CN1c2ccccc2C(C)(C)C12C=Nc1c(c(C(=O)N3CCOCC3)cc3ccccc13)O2 (stereo not shown) [Example 1, 1,3-dihydro-1,3,3-trimethyl-5'-morpholinocarbonylspiro[2H-indole-2,3'-[3H]-naphtho[2,1-b][1,4]oxazine]] | – | – | – | 0.324 | 88.9% | 620 nm | – | 42.2%
3 | Cc1ccc(NC(=O)c2cc3ccccc3c3c2OC2(C=N3)N(C)c3ccccc3C2(C)C)cc1 (stereo not shown) [Example 3, 1,3-dihydro-1,3,3-trimethyl-5'-p-(tolylcarbamoyl)spiro[2H-indole-2,3'-[3H]-naphtho[2,1-b][1,4]oxazine]] | 0.707 | 75.5% | 634 nm | – | – | – | 14.8% | –
4 | CN1c2ccccc2C(C)(C)C12C=Nc1c(c(C(=O)N3CCc4ccccc43)cc3ccccc13)O2 (stereo not shown) [Example 4, 1,3-dihydro-1,3,3-trimethyl-5'-indolinocarbonylspiro[2H-indole-2,3'-[3H]-naphtho[2,1-b][1,4]oxazine]] | 0.339 | 86.9% | 622 nm | 0.553 | 85.4% | 622 nm | 39.8% | 23.9%
5 | CC(C)CN1c2ccccc2C(C)(C)C12C=Nc1c(c(C(=O)N3CCCCC3)cc3ccccc13)O2 (stereo not shown) [Example 7, 1,3-dihydro-1-(2'-methylpropyl)-3,3-dimethyl-5'-piperidinocarbonylspiro[2H-indole-2,3'-[3H]-naphtho[2,1-b] [1,4]oxazine]] | – | – | – | 0.437 | 86.9% | 622 nm | – | 31.8%

The next lines start with results.

Row | OID (optical induced density, D∞-D0) [1] | T0 (the transmission before exposure to UV) [1] | λmax (the maximum absorption in the visible spectrum after UV irradiation) [1] | OID (optical induced density, D∞-D0) [2] | T0 (the transmission before exposure to UV) [2] | λmax (the maximum absorption in the visible spectrum after UV irradiation) [2] | Compound | TD15 (the transmission after 15 minutes' exposure to UV) [1] | TD15 (the transmission after 15 minutes' exposure to UV) [2]
6 | 0.142 | 90.9% | 607 nm | 0.140 | 90.5% | 610 nm | CN1c2ccccc2C(C)(C)C12C=Nc1c(ccc3ccccc13)O2 (stereo not shown) [Control I, 1,3-dihydro-1,3,3-trimethylspiro[2H-indole-2,3'-[3H]-naphth[2,1-b][1,4]oxazine], reference compound] | 65.6% | 65.5%
7 | 0.280 | 90.5% | 616 nm | 0.357 | 90.5% | 616 nm | Cc1cc2c(cc1C)C(C)(C)C1(C=Nc3c(ccc4ccccc34)O1)N2C (stereo not shown) [Control II, 1,3-dihydro-1,3,3,5,6-pentamethylspiro[2H-indole-2'3'-[3H]-naphth-[2,1-b][1,4]oxazine], reference compound] | 47.5% | 39.8%
8 | 0.152 | 89.0% | 618 nm | – | – | – | CN1c2ccccc2C(C)(C)C12C=Nc1c(c(C(=O)N3CCCCC3)cc3ccccc13)O2 (stereo not shown) [Example 2, 1,3-dihydro-1,3,3-trimethyl-5'-piperidinocarbonylspiro[2H-indole-2,3'-[3H]-naphtho[2,1-b][1,4]oxazine]] | 62.6% | –
9 | – | – | – | 0.858 | 81.9% | 634 nm | COc1ccc2c(c1)C(C)(C)C1(C=Nc3c(c(C(=O)N4CCCCC4)cc4ccccc34)O1)N2C (stereo not shown) [Example 6, 1,3-dihydro-5-methoxy-1,3,3-trimethyl-5'-piperidinocarbonylspiro[2H]-indole-2,3'-[3H]naphth[2,1-b][1,4]oxazine] | – | 11.3%
